Drawing on patent US9957263B2, “Bromodomain inhibitors” (AbbVie Inc., priority 2013, dated 2018), this text covers Ki and EC50 for 17 compounds.

One experiment concerns the target BRD4 (BDII_E352-M457) (Homo sapiens (Human), UniProt O60885). The experiment is described as follows: TR-FRET bromodomain binding assay, BRD4 second bromodomain. Particulars: His-tagged BD2, Alexa647-labeled probe 30 nM. The procedure, abridged: (§1)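 His-tagged bromodomain (8 nM) was incubated 1 h at room temperature with Eu-anti-His antibody (1 nM), Alexa647-labeled BET-inhibitor probe (100 nM for BDI, 30 nM for BDII) and compound (50 μM-0.85 nM, 2% DMSO) in pH 6.0 phosphate buffer. TR-FRET ratio read; IC50 from 4-parameter fit converted to Ki using probe Kd.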
A general note: In TR-FRET formats the signal depends on donor and acceptor labels being close together.

A further experiment addresses BRD4 (BDI_K57-E168) (Homo sapiens (Human), UniProt O60885). The experiment is described as follows: TR-FRET bromodomain binding assay, BRD4 first bromodomain. Particulars: His-tagged BD1, Alexa647-labeled probe 100 nM. The essentials:
as §1

Experiment [1] relates to breast cancer cell line MX-1. Briefly: MX-1 cell line proliferation assay, Method B. It is filed as cell-based. Particulars: Homo sapiens, MX1; MX-1 cells, 384-well, 72 hours, Cell Titer Glo; read-out: Cellular proliferation: EC50 Method B. On the procedure:
The impact of compounds of the Examples on cancer cell proliferation was determined using the breast cancer cell line MX-1 (ATCC) in a 3-day proliferation assay and the data are reported in Table 1.
Method B: MX-1 cells were maintained in RPMI 1640 medium (Sigma) supplemented with 10% FBS at 37 C.° and an atmosphere of 5% CO2. For compound testing, MX-1 cells were plated in 384-well white with clear, flat bottom plates at a density of 750 cells/well in 25 μL of culture media and incubated at 370 overnight to allow cell adhesion and spreading. Ten point compound dilution series were prepared in DMSO via a 3-fold serial dilution from either […] or 1 μM stock and added directly to the appropriate wells of the MX-1 cell plate by an ECHO liquid handler (Labcyte). The final compound concentrations in the wells were 10, 3.25, 1, 0.25, 0.124, 0.040, 0.0124, 0.0031, 0.0015 and 0.0005 μM or 1, 0.33, 0.1, 0.025, 0.0124, 0.004, 0.0012, 0.0003, 0.00015, 0.00005 μM, depending on the concentration of the compound stock solution.
Luminescence readings from the Cell Titer Glo assay were normalized to the DMSO treated cells and analyzed using Accelrys Assay Explorer 3.3 software with sigmoidal curve fitting to obtain ECsos. The minimum significant ratio (MSR) was determined to evaluate assay reproducibility (Eastwood et al., (2006) J Biomol Screen, 11: 253-261). The overall MSR was determined to be 3.3 and a moving MSR (last six run MSR overtime) has averaged
A general note: Cellular ATP, detected with luciferase, serves as a proxy for viable cell number.

As to `CCNC(=O)c1cc2c(-c3ccc(C(=O)N(CCN4CCSCC4)c4ccc(Cl)c(Cl)c4)cc3Oc3c(C)cccc3C)cn(C)c(=O)c2[nH]1` [Example 162, 4-[4-{(3,4-dichlorophenyl)[2-(thiomorpholin-4-yl)ethyl]carbamoyl}-2-(2,6-dimethylphenoxy)phenyl]-N-ethyl-6-methyl-7-oxo-6,7-dihydro-1H-pyrrolo[2,3-c]pyridine-2-carboxamide], the values for the Ki at BRD4 (BDII_E352-M457) and on BRD4 (BDI_K57-E168) were 88.6 nM and greater than 12700 nM, respectively.
In the same order, the values of `CCS(=O)(=O)Nc1ccc(Oc2ccc(F)cc2F)c(-c2cn(C)c(=O)c3[nH]c(C#CCOC)cc23)c1` [Example 163, N-{4-(2,4-difluorophenoxy)-3-[2-(3-methoxyprop-1-yn-1-yl)-6-methyl-7-oxo-6,7-dihydro-1H-pyrrolo[2,3-c]pyridin-4-yl]phenyl}ethanesulfonamide] are 0.605 nM and 1.64 nM.
Regarding `CCNC(=O)c1cc2c(-c3cc(S(=O)(=O)CC)ccc3Oc3c(C)cccc3CCC3CCCC3)cn(C)c(=O)c2[nH]1` [Example 164, 4-{2-[2-(2-cyclopentylethyl)-6-methylphenoxy]-5-(ethylsulfonyl)phenyl}-N-ethyl-6-methyl-7-oxo-6,7-dihydro-1H-pyrrolo[2,3-c]pyridine-2-carboxamide], on BRD4 (BDII_E352-M457), the inhibitory constant (Ki) (usually a dissociation constant, usually derived from enzyme kinetics or from competition with a known ligand) came out at 15.1 nM. Further, the EC50 in experiment [1] came out at 10000 nM.
Consider `CCNC(=O)c1cc2c(-c3ccc(C(=O)N(CCCN4CCCC4)C(C)Cc4ccccc4)cc3Oc3c(C)cccc3C)cn(C)c(=O)c2[nH]1` (stereo not drawn) [Example 165, 4-[2-(2,6-dimethylphenoxy)-4-{(1-phenylpropan-2-yl) [3-(pyrrolidin-1-yl)propyl]carbamoyl}phenyl]-N-ethyl-6-methyl-7-oxo-6,7-dihydro-1H-pyrrolo[2,3-c]pyridine-2-carboxamide], for which the inhibition constant Ki on BRD4 (BDII_E352-M457) was 4.48 nM; on BRD4 (BDI_K57-E168), 429 nM. The EC50 in experiment [1] amounted to 1460 nM.
As to `CCNC(=O)c1cc2c(-c3ccc(C(=O)N(CC#N)C(C)Cc4ccccc4)cc3Oc3c(C)cccc3C)cn(C)c(=O)c2[nH]1` (stereo not drawn) [Example 166, 4-{4-[(cyanomethyl)(1-phenylpropan-2-yl)carbamoyl]-2-(2,6-dimethylphenoxy)phenyl}-N-ethyl-6-methyl-7-oxo-6,7-dihydro-1H-pyrrolo[2,3-c]pyridine-2-carboxamide], the inhibition constant (Ki) was 17.5 nM at BRD4 (BDII_E352-M457) and greater than 12700 nM on BRD4 (BDI_K57-E168). Moreover, in experiment [1], the EC50 was 3030 nM.
Take `CCNC(=O)c1cc2c(-c3ccc(C(=O)N(CC#N)CC(C)c4ccccc4)cc3Oc3c(C)cccc3C)cn(C)c(=O)c2[nH]1` (stereo not drawn) [Example 167, 4-{4-[(cyanomethyl)(2-phenylpropyl)carbamoyl]-2-(2,6-dimethylphenoxy)phenyl}-N-ethyl-6-methyl-7-oxo-6,7-dihydro-1H-pyrrolo[2,3-c]pyridine-2-carboxamide]: the inhibition constant Ki is 34.4 nM at BRD4 (BDII_E352-M457) and greater than 12700 nM on BRD4 (BDI_K57-E168). In addition, in experiment [1], the EC50 worked out at 2020 nM.
The corresponding values for `CCNC(=O)c1cc2c(-c3ccc(C(=O)N(CC#N)c4cccc(Cl)c4)cc3Oc3c(C)cccc3C)cn(C)c(=O)c2[nH]1` [Example 168, 4-{4-[(3-chlorophenyl)(cyanomethyl)carbamoyl]-2-(2,6-dimethylphenoxy)phenyl}-N-ethyl-6-methyl-7-oxo-6,7-dihydro-1H-pyrrolo[2,3-c]pyridine-2-carboxamide] are 22.3 nM, 2310 nM and 3060 nM.
For `CCNC(=O)c1cc2c(-c3ccc(C(=O)N(CC#N)c4ccc(Cl)cc4)cc3Oc3c(C)cccc3C)cn(C)c(=O)c2[nH]1` [Example 169, 4-{4-[(4-chlorophenyl)(cyanomethyl)carbamoyl]-2-(2,6-dimethylphenoxy)phenyl}-N-ethyl-6-methyl-7-oxo-6,7-dihydro-1H-pyrrolo[2,3-c]pyridine-2-carboxamide], the results for the Ki on BRD4 (BDII_E352-M457) and on BRD4 (BDI_K57-E168) were 27.8 nM and 1400 nM, respectively. Further, the EC50 in experiment [1] was 2170 nM.
The corresponding values for `CCNC(=O)c1cc2c(-c3ccc(C(=O)N(CCN(CC)CC)c4ccccc4C)cc3Oc3c(C)cccc3C)cn(C)c(=O)c2[nH]1` [Example 170, 4-[4-{[2-(diethylamino)ethyl](2-methylphenyl)carbamoyl}-2-(2,6-dimethylphenoxy)phenyl]-N-ethyl-6-methyl-7-oxo-6,7-dihydro-1H-pyrrolo[2,3-c]pyridine-2-carboxamide] are 4.22 nM, 863 nM and 2170 nM.
With `CCNC(=O)c1cc2c(-c3ccc(C(=O)N(CC#N)c4cccc(C(F)(F)F)c4)cc3Oc3c(C)cccc3C)cn(C)c(=O)c2[nH]1` [Example 171, 4-[4-{(cyanomethyl)[3-(trifluoromethyl)phenyl]carbamoyl}-2-(2,6-dimethylphenoxy)phenyl]-N-ethyl-6-methyl-7-oxo-6,7-dihydro-1H-pyrrolo[2,3-c]pyridine-2-carboxamide], the values for the Ki on BRD4 (BDII_E352-M457) and on BRD4 (BDI_K57-E168) were 38.3 nM and greater than 12700 nM, respectively. Also, in experiment [1], the EC50 was found to be 6410 nM.
In the same order, the values of `CCNC(=O)c1cc2c(-c3ccc(C(=O)N(CCCN(C)C)C4CCCCC4)cc3Oc3c(C)cccc3C)cn(C)c(=O)c2[nH]1` [Example 172, 4-[4-{cyclohexyl[3-(dimethylamino)propyl]carbamoyl}-2-(2,6-dimethylphenoxy)phenyl]-N-ethyl-6-methyl-7-oxo-6,7-dihydro-1H-pyrrolo[2,3-c]pyridine-2-carboxamide] are 6.66 nM, 1000 nM and 2540 nM.
The corresponding values for `CCNC(=O)c1cc2c(-c3ccc(C(=O)N(Cc4ccccc4)Cc4ccc(Cl)cc4)cc3Oc3c(C)cccc3C)cn(C)c(=O)c2[nH]1` [Example 173, 4-{4-[benzyl(4-chlorobenzyl)carbamoyl]-2-(2,6-dimethylphenoxy)phenyl}-N-ethyl-6-methyl-7-oxo-6,7-dihydro-1H-pyrrolo[2,3-c]pyridine-2-carboxamide] are 64.3 nM, greater than 12700 nM and 5250 nM.
On to `CCNC(=O)c1cc2c(-c3ccc(C(=O)N(CCN(C)C)c4ncccn4)cc3Oc3c(C)cccc3C)cn(C)c(=O)c2[nH]1` [Example 174, 4-[4-{[2-(dimethylamino)ethyl](pyrimidin-2-yl)carbamoyl}-2-(2,6-dimethylphenoxy)phenyl]-N-ethyl-6-methyl-7-oxo-6,7-dihydro-1H-pyrrolo[2,3-c]pyridine-2-carboxamide], for which the inhibitory constant (Ki) at BRD4 (BDII_E352-M457) stood at 13.3 nM; on BRD4 (BDI_K57-E168), 2300 nM. Further, the EC50 in experiment [1] amounted to 1610 nM.
In the same order, the values of `CCNC(=O)c1cc2c(-c3ccc(C(=O)N(CCC#N)c4cccc(Cl)c4)cc3Oc3c(C)cccc3C)cn(C)c(=O)c2[nH]1` [Example 175, 4-{4-[(3-chlorophenyl)(2-cyanoethyl)carbamoyl]-2-(2,6-dimethylphenoxy)phenyl}-N-ethyl-6-methyl-7-oxo-6,7-dihydro-1H-pyrrolo[2,3-c]pyridine-2-carboxamide] are 17.5 nM, 2230 nM and 2410 nM.
For `CCNC(=O)c1cc2c(-c3ccc(C(=O)N(CCC#N)C4CCCCC4)cc3Oc3c(C)cccc3C)cn(C)c(=O)c2[nH]1` [Example 176, 4-{4-[(2-cyanoethyl)(cyclohexyl)carbamoyl]-2-(2,6-dimethylphenoxy)phenyl}-N-ethyl-6-methyl-7-oxo-6,7-dihydro-1H-pyrrolo[2,3-c]pyridine-2-carboxamide], the inhibition constant Ki at BRD4 (BDII_E352-M457) amounted to 8.65 nM; on BRD4 (BDI_K57-E168), 927 nM. In addition, the EC50 in experiment [1] was determined as 3910 nM.
The corresponding values for `CCNC(=O)c1cc2c(-c3ccc(C(=O)N(CC#N)c4ccccc4)cc3Oc3c(C)cccc3C)cn(C)c(=O)c2[nH]1` [Example 177, 4-{4-[(cyanomethyl)(phenyl)carbamoyl]-2-(2,6-dimethylphenoxy)phenyl}-N-ethyl-6-methyl-7-oxo-6,7-dihydro-1H-pyrrolo[2,3-c]pyridine-2-carboxamide] are 9.21 nM, 1490 nM and 10000 nM.
The corresponding values for `CCNC(=O)c1cc2c(-c3ccc(C(=O)N(CCN(CC)CC)c4ccccc4OC)cc3Oc3c(C)cccc3C)cn(C)c(=O)c2[nH]1` [Example 178, 4-[4-{[2-(diethylamino)ethyl](2-methoxyphenyl)carbamoyl}-2-(2,6-dimethylphenoxy)phenyl]-N-ethyl-6-methyl-7-oxo-6,7-dihydro-1H-pyrrolo[2,3-c]pyridine-2-carboxamide] are 2.5 nM, 592 nM and 10000 nM.
